Values of other authors as cited in patent US20150223465A1, “COMPOSITION CONTAINING 3-CYCLOPROPYL-1-ENYL-PROPANOIC ACID SALTS AND A CARRIER” (Yissum Research Development Company of the Hebrew …, priority 2012, published 2015).

Assays:
[1] = test system: cut mini carnation flowers; details: cited from earlier work; for inhibition of the action of ethylene: applied as aqueous solutions to cut mini carnation flowers; for activity as plant ethylene antagonist: in a vapor phase
[2] = test system: cut flowers; details: cited from earlier work

CC1=CC1C(=O)O (stereo not drawn) [2-methylcycloprop-2-ene-1-carboxylic acid]
inhibition of the action of ethylene [1]: did not inhibit | activity as plant ethylene antagonist [1]: active

O=C(O)CCC1=CC1 [3-cycloprop-1-en-1-ylpropanoic acid]
inhibition of the action of ethylene [1]: did not inhibit | activity as plant ethylene antagonist [1]: active

O=C([O-])O.[Na+] [NaHCO3, sodium bicarbonate]
effect on fresh weight of cut flowers during vase life ([2]; about 1.5 mM NaHCO3 combined with CuSO4): positively affected | effect on hydraulic stem resistance or transpiration rate ([2]; in vase water of cut flowers): no effect

O=C(O)C1C=C1 [cycloprop-2-ene-1-carboxylic acid]
inhibition of the action of ethylene [1]: did not inhibit | activity as plant ethylene antagonist [1]: active

CC(C)N.O=C(O)CCC1=CC1 [propan-2-aminium 3-cycloprop-1-en-1-ylpropanoate]
inhibition of the action of ethylene [1]: some ethylene sensitivity but the test results were variable
